Series [1] is described as follows: Stability of the conjugate in ammonium acetate buffer, HPLC. The class given is physicochemical. As to conditions: for % release of Compound IIA from the conjugate: 37° C., after four hours incubation. How it is done:
Stability of the conjugates was studied using HPLC analysis. The conjugate was incubated in ammonium acetate buffers at pH 4 and 5.2 at 37° C. Each solution was then taken periodically and applied to an HPLC column using a method reported above. The amount of material released from the conjugate was determined and expressed as percent of released material.
To 0.5 mg of conjugate, ammonium acetate 5 mM pH=5.2 buffer solution (200 mL) was added. The solution was warmed at 37° C. and sample was taken periodically and analyzed by HPLC (method 2). Results are expressed as % of released material (8S,10S)-6,8,11-trihydroxy-8-(hydroxyacetyl)-1-methoxy-10-{[(1S,3R,4aS,9S,9aR,10aS)-9-methoxy-1-methyloctahydro-1H-pyrano[4′,3′:4,5][1,3]oxazolo[2,3-c][1,4]oxazin-3-yl]oxy}-7,8,9,10-tetrahydrotetracene-5,12-dione (Compound IIA) from the conjugate. […]

The subject of series [2] is doxorubicin-resistant (DoxRes) HER2 cells. Kind of series: CellTiter-Glo in vitro cell proliferation assay, doxorubicin-resistant HER2. It counts as cell-based. Particulars: continuous exposure, 3 days. From the text: (§1) Cell-based in vitro assays may be used to measure viability, i.e. proliferation (IC50), cytotoxicity (EC50), and induction of apoptosis (caspase activation) of the ADC. The CellTiter-Glo® Luminescent Cell Viability Assay is a commercially available (Promega Corp., Madison, Wis.), homogeneous assay method based on the recombinant expression of Coleoptera luciferase (U.S. Pat. Nos. 5,583,024; 5,674,713; 5,700,670). This cell proliferation assay determines the number of viable cells in culture based on quantitation of the ATP present, an indicator of metabolically active cells (Crouch et al (1993) J. Immunol. Meth. 160:81-88; U.S. Pat. No. 6,602,677). The CellTiter-Glo® Assay is conducted in 96 well format, making it amenable to automated high-throughput screening (HTS) (Cree et al (1995) AntiCancer Drugs 6:398-404). The homogeneous assay procedure involves adding the single reagent (CellTiter-Glo® Reagent) directly to cells cultured in serum-supplemented medium. Cell washing, removal of medium and multiple pipetting steps are not required. The system detects as few as 15 cells/well in a 384-well format in 10 minutes after adding reagent and mixing.
(§2) The in vitro potency of antibody-drug conjugates was measured by a cell proliferation assay (FIGS. 8-29). The CellTiter-Glo® Luminescent Cell Viability Assay is a commercially available (Promega Corp., Madison, Wis.), homogeneous assay method based on the recombinant expression of Coleoptera luciferase (U.S. Pat. Nos. 5,583,024; 5674,713; 5,700,670). This assay determines the number of viable cells in culture based on quantitation of the ATP present, an indicator of metabolically active cells (Crouch et al (1993) J. Immunol. Meth. 160:81-88; U.S. Pat. No. 6,602,677). The CellTiter-Glo® Assay was conducted in 96 well format, making it amenable to automated high-throughput screening (HTS) (Cree et al (1995) AntiCancer Drugs 6:398-404). The homogeneous assay procedure involves adding the single reagent (CellTiter-Glo® Reagent) directly to cells cultured in serum-supplemented medium.
(§3) The homogeneous “add-mix-measure” format results in cell lysis and generation of a luminescent signal proportional to the amount of ATP present. The substrate, Beetle Luciferin, is oxidatively decarboxylated by recombinant firefly luciferase with concomitant conversion of ATP to AMP and generation of photons. Viable cells are reflected in relative luminescence units (RLU). Data can be recorded by luminometer or CCD camera imaging device. The luminescence output is presented as RLU, measured over time. Alternatively, photons from luminescence can be counted in a scintillation counter in the presence of a scintillant. The light units can be represented then as CPS—counts per second.
(§4) Efficacy of ADC were measured by a cell viability assay employing the following protocol, adapted from CellTiter Glo Luminescent Cell Viability Assay, Promega Corp. Technical Bulletin TB288 and Mendoza et al (2002) Cancer Res. 62:5485-5488: • 1. An aliquot of 50 μl of cell culture containing about 1000 or more cells, including: HER2-expressing and CD22-expressing cells, in medium was deposited in each well of a 96-well, opaque-walled, clear bottom plate. • 2. ADC (50 μl) was added to triplicate experimental wells to final concentration of 10 μg/mL, with “no ADC” control wells receiving medium alone, and incubated for 3 or more days. • 3. The plates were equilibrated to room temperature for approximately 30 minutes. • 4. CellTiter-Glo Reagent (100 μl) was added. • 5. The contents were mixed for 2 minutes on an orbital shaker to induce cell lysis. • 6. The plate was incubated at room temperature for 10 minutes to stabilize the luminescence signal. • 7. Luminescence was recorded and reported in graphs as RLU=relative luminescence units.
(In general: ATP-based viability assays read luminescence as a measure of living cells.)

The test system of a further series is SK-BR-3 cells. Briefly: CellTiter-Glo in vitro cell proliferation assay, SK-BR-3. It counts as cell-based. As to conditions: continuous exposure, 3 days.
Text: as §1, §2, §3, §4

The next series has as its system MCF7 cells. Kind of series: CellTiter-Glo in vitro cell proliferation assay, MCF7. It counts as cell-based, human. Particulars: continuous exposure, 3 days.
Text: as §1, §2, §3, §4

For the next series, the system named is BT-474 cells. Briefly: CellTiter-Glo in vitro cell proliferation assay, BT-474. The class given is cell-based. Particulars: continuous exposure, 3 days.
Text: as §1, §2, §3, §4

A further series has as its system tumor models. Particulars: cited from earlier work.

These results are taken from patent US9695240B2, “Anthracycline derivative conjugates, process for their preparation and their use as antitumor compounds” (Genentech, Inc., priority 2008, dated 2017).

Take `CNC(=O)COC1(OCC(=O)[C@]2(O)Cc3c(O)c4c(c(O)c3[C@@H](O[C@H]3C[C@H]5[C@H](O[C@@H]6[C@@H](OC)OCCN65)[C@H](C)O3)C2)C(=O)c2c(OC)cccc2C4=O)CCCCC1` [Compound 2, N-methyl-2-[(1-{2-oxo-2-[(2S,4S)-2,5,12-trihydroxy-7-methoxy-4-{[(1S,3R,4aS,9S,9aR,10aS)-9-methoxy-1-methyloctahydro-1H-pyrano[4′,3′:4,5][1,3]oxazolo[2,3-c][1,4]oxazin-3-yl]oxy}-6,11-dioxo-1,2,3,4,6,11-hexahydrotetracen-2-yl]ethoxy}cyclohexyl)oxy]acetamide]: the “stability at pH 5.2, release of compound of formula (IIA) over time, in words” value in series [1] (pH 5.2, FIG. 1) is “increased release of the free compound of the formula (IIA)”.
In the case of `COc1cccc2c1C(=O)c1c(O)c3c(c(O)c1C2=O)C[C@@](O)(C(=O)COC1CCCC(COCC(=O)NCCN2C(=O)C=CC2=O)O1)C[C@@H]3O[C@H]1C[C@H]2[C@H](O[C@@H]3[C@@H](OC)OCCN32)[C@H](C)O1` (some centres unmarked) [Compound 51], the “DoxRes HER2 in vitro cell viability at 3 days, anti-proliferative activity in words” value (from here on “DoxRes HER2 in vitro cell viability”) in series [2] was “minimal anti-proliferative activity”. The “SK-BR-3 in vitro cell viability at 3 days, anti-proliferative activity in words” value (shortened to “SK-BR-3 in vitro cell viability”) in the series on SK-BR-3 cells is on record as “minimal anti-proliferative activity”. In addition, the “MCF7 in vitro cell viability at 3 days, anti-proliferative activity in words” value (“MCF7 in vitro cell viability at 3 days” below) in the series with MCF7 cells was “inactive”. For the same compound, in the series on BT-474 cells, the “BT-474 in vitro cell viability at 3 days, anti-proliferative activity in words” value (shortened to “BT-474 in vitro cell viability at 3 days”) is “inactive”.
`COc1cccc2c1C(=O)c1c(O)c3c(c(O)c1C2=O)C[C@@](O)(/C(CO)=N/NC(=O)CCSSc1ccccn1)C[C@@H]3O[C@H]1C[C@H]2[C@H](O[C@@H]3[C@@H](OC)OCCN32)[C@H](C)O1` [Compound 53, N′-{(1E)-2-hydroxy-1-[(2S,4S)-2,5,12-trihydroxy-7-methoxy-4-{[(1S,3R,4aS,9S,9aR,10aS)-9-methoxy-1-methyloctahydro-1H-pyrano[4′,3′:4,5][1,3]oxazolo[2,3-c][1,4]oxazin-3-yl]oxy}-6,11-dioxo-1,2,3,4,6,11-hexahydrotetracen-2-yl]ethylidene}-3-(pyridin-2-yldisulfanyl)propanehydrazide]: in series [2], the “DoxRes HER2 in vitro cell viability” value was “less potent than free Ant”. In addition, the “SK-BR-3 in vitro cell viability” value in the series with SK-BR-3 cells is “less potent than free Ant”. In addition, the “MCF7 in vitro cell viability at 3 days” value with MCF7 cells is “minial anti-proliferative activity”. Besides, the “BT-474 in vitro cell viability at 3 days” value with BT-474 cells was “minimal anti-proliferative activity”.
Consider `COc1cccc2c1C(=O)c1c(O)c3c(c(O)c1C2=O)C[C@@](O)(C(=O)COC1CCCC(COCC(=O)ON2C(=O)CCC2=O)O1)C[C@@H]3O[C@H]1C[C@H]2[C@H](O[C@@H]3[C@@H](OC)OCCN32)[C@H](C)O1` (stereo partly drawn) [Compound 50, 1-({[(6-{2-oxo-2-[(2S,4S)-2,5,12-trihydroxy-7-methoxy-4-{[(1S,3R,4aS,9S,9aR,10aS)-9-methoxy-1-methyloctahydro-1H-pyrano[4′,3′:4,5][1,3]oxazolo[2,3-c][1,4]oxazin-3-yl]oxy}-6,11-dioxo-1,2,3,4,6,11-hexahydrotetracen-2-yl]ethoxy}tetrahydro-2H-pyran-2-yl)methoxy]acetyl}oxy)pyrrolidine-2,5-dione], for which, in series [2], the “DoxRes HER2 in vitro cell viability” value was “minimal anti-proliferative activity”. Further, the “SK-BR-3 in vitro cell viability” value with SK-BR-3 cells is on record as “minimal anti-proliferative activity”. Further, the “MCF7 in vitro cell viability at 3 days” value in the series with MCF7 cells was “inactive”. In addition, the “BT-474 in vitro cell viability at 3 days” value in the series with BT-474 cells is “inactive”.
`COc1cccc2c1C(=O)c1c(O)c3c(c(O)c1C2=O)C[C@@](O)(/C(CO)=N/NC(=O)CCCCCN1C(=O)C=CC1=O)C[C@@H]3O[C@H]1C[C@H]2[C@H](O[C@@H]3[C@@H](OC)OCCN32)[C@H](C)O1` [Compound 52, 6-(2,5-dioxo-2,5-dihydro-1H-pyrrol-1-yl)-N′-{(1E)-2-hydroxy-1-[(2S,4S)-2,5,12-trihydroxy-7-methoxy-4-{[(1S,3R,4aS,9S,9aR,10aS)-9-methoxy-1-methyloctahydro-1H-pyrano[4′,3′:4,5][1,3]oxazolo[2,3-c][1,4]oxazin-3-yl]oxy}-6,11-dioxo-1,2,3,4,6,11-hexahydrotetracen-2-yl]ethylidene}hexanehydrazide]: the “DoxRes HER2 in vitro cell viability” value in series [2] is given as “less potent than free Ant”. The “SK-BR-3 in vitro cell viability” value with SK-BR-3 cells is given as “less potent than free Ant”. Moreover, the “MCF7 in vitro cell viability at 3 days” value in the series with MCF7 cells is given as “minial anti-proliferative activity”. Further, the “BT-474 in vitro cell viability at 3 days” value in the series with BT-474 cells was “minimal anti-proliferative activity”.
On to `COc1cccc2c1C(=O)c1c(O)c3c(c(O)c1C2=O)C[C@@](O)(C(=O)CO)C[C@@H]3O[C@H]1C[C@H](N2CCO[C@H](OC)C2)[C@H](O)[C@H](C)O1` [nemorubicin, (8S,10S)-6,8,11-trihydroxy-10-((2R,4S,5S,6S)-5-hydroxy-4-((S)-2-methoxymorpholino)-6-methyltetrahydro-2H-pyran-2-yloxy)-8-(2-hydroxyacetyl)-1-methoxy-7,8,9,10-tetrahydrotetracene-5,12-dione], for which the “antitumor activity in in vivo tumor models, in words” value in the series on tumor models is “promising antitumor activity on experimental murine tumors”.
For the compound `COc1cccc2c1C(=O)c1c(O)c3c(c(O)c1C2=O)C[C@@](O)(/C(CO)=N/NC(=O)CCSSC[C@H](NC(C)=O)C(=O)O)C[C@@H]3O[C@H]1C[C@H]2[C@H](O[C@@H]3[C@@H](OC)OCCN32)[C@H](C)O1` [Compound 12, N-acetyl-3-({3-[(2E)-2-{2-hydroxy-1-[(2S,4S)-2,5,12-trihydroxy-7-methoxy-4-{[(1S,3R,4aS,9S,9aR,10aS)-9-methoxy-1-methyloctahydro-1H-pyrano[4′,3′:4,5][1,3]oxazolo[2,3-c][1,4]oxazin-3-yl]oxy}-6,11-dioxo-1,2,3,4,6,11-hexahydrotetracen-2-yl]ethylidene}hydrazinyl]-3-oxopropyl}disulfanyl)-L-alanine], the “% release of Compound IIA from the conjugate” value is listed as 100% in series [1] (pH 4.2 buffer solution) and 90% in series [1] (pH 5.2 buffer solution).
